Test [1] has as its target T1, Short transient receptor potential channel 4 (Mus musculus, UniProt Q9QUQ5).
T1 sequence (Q9QUQ5 whole entry): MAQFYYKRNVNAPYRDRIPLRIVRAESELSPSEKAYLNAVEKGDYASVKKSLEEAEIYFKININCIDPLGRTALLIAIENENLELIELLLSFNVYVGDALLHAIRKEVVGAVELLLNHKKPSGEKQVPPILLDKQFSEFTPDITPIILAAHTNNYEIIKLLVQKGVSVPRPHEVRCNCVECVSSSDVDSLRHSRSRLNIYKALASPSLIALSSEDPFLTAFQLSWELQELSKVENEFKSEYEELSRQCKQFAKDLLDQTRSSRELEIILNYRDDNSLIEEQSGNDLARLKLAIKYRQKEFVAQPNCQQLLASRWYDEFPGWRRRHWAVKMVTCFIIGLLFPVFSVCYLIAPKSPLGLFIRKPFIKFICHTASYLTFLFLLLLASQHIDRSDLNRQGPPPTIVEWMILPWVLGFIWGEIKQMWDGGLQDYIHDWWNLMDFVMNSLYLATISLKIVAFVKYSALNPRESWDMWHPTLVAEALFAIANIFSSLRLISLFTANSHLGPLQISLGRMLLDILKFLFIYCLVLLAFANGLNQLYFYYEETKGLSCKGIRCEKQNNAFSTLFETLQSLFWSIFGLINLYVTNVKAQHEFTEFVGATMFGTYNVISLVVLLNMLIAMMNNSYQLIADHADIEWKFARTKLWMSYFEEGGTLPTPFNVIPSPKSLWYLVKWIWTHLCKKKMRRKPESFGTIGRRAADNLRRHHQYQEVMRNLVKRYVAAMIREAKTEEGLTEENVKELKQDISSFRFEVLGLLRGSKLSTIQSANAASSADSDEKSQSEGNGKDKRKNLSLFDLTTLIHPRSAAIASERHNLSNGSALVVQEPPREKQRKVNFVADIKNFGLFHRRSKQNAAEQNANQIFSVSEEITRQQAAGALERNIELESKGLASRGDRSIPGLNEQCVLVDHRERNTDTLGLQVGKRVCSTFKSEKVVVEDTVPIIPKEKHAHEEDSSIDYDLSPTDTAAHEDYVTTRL
As to the kind of experiment: TRPC4 positive allosteric modulators, dose response, cell-based, HEK293 TRPC4/mu-opioid, Fluo-4 calcium, EC20 DAMGO (AID 434941).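 Note: HEK293 cells coexpressing TRPC4 and mu opioid receptor stimulated by EC20 DAMGO.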 The format is functional.

In test [2] the test system is Vero. Put plainly: Vero E6 cell cytotoxicity, SAR follow-up, cytotoxicity control for West Nile virus antiviral project, synthesized analogs (AID 2244). The format is functional. As to conditions: Chlorocebus sabaeus.
For test [3], the system named is Vero. As to the kind of experiment: West Nile virus CPE inhibition, SAR follow-up, cell-based, synthesized analogs (AID 2238). The format is functional. As to conditions: Chlorocebus sabaeus.
Test [4] concerns the target T2, Bcl-2-like protein 10 (Homo sapiens, UniProt Q9HD36).
T2 sequence (Q9HD36 whole entry): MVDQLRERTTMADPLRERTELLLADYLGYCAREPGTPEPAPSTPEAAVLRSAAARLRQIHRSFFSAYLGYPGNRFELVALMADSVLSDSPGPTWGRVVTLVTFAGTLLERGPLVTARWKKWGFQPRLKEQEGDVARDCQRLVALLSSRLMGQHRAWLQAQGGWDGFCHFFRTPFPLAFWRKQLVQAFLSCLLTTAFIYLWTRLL
As to the kind of experiment: displacers of TR3 peptide from Bcl-B, primary screen, selectivity assay for Bfl-1 inhibitor project, biochemical, fluorescence polarization, FITC-TR3 peptide (AID 748).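 Note: fluorescence polarization from a fluorescein-labelled TR3 peptide binding purified Bcl-B.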

The target in test [5] is T3, SUMO-activating enzyme (Homo sapiens, UniProt Q9UBT2). Put plainly: SUMOylation inhibitor hit validation, confirmation, SUMOylation inhibitor project, biochemical, AlphaScreen (AID 2018). The format is functional.
Test [6] addresses T3, SUMO-activating enzyme. Put plainly: inhibitors of in vitro SUMOylation cascade, primary screen, biochemical, HTRF, uHTS (AID 2006). Type of test: protein-complex assay.
Test [7] deals with Tyrosine-protein phosphatase non-receptor type 7 (Homo sapiens, UniProt P35236). Put plainly: redox-dependent HePTP inhibition, mechanism study, biochemical, fluorescence (AID 2068). Type of test: functional.
The nature of test [8]: THP-1 cell cytotoxicity, dose response, cytotoxicity control for Vif-APOBEC3G degradation inhibitor project, THP-1 cells (AID 1117359). As to conditions: Human immunodeficiency virus 1, THP-1. The format is functional.
Test [9] can be described thus: Vero cell cytotoxicity, dose response, cytotoxicity control for Vif-APOBEC3G degradation inhibitor project, Vero cells (AID 1117358). As to conditions: Human immunodeficiency virus 1, Vero. Type of test: functional.
Test [10] concerns the target T4, Caspase-3 (Homo sapiens, UniProt P42574).
T4 sequence (P42574 whole entry): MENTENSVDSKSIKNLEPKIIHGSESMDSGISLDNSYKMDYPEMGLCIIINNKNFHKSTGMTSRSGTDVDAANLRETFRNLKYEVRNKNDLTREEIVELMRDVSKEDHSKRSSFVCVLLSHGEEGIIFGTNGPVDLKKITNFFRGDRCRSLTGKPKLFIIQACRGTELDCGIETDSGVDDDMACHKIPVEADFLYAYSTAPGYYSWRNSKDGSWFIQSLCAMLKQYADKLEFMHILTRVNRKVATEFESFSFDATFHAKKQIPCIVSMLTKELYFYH
As to the kind of experiment: procaspase-3 activators, dose response, biochemical, absorbance (AID 489014).

Test [11] addresses Caspase-7 (Homo sapiens, UniProt P55210). As to the kind of experiment: procaspase-7 activators, dose response, counter-screen for procaspase-3 activator project, biochemical, absorbance (AID 489013).
Test [12] has as its target T5, Corticotropin-releasing factor receptor 2/Corticotropin-releasing factor-binding protein (Homo sapiens, UniProt P24387+Q13324).
T5 sequence (Q13324 whole entry): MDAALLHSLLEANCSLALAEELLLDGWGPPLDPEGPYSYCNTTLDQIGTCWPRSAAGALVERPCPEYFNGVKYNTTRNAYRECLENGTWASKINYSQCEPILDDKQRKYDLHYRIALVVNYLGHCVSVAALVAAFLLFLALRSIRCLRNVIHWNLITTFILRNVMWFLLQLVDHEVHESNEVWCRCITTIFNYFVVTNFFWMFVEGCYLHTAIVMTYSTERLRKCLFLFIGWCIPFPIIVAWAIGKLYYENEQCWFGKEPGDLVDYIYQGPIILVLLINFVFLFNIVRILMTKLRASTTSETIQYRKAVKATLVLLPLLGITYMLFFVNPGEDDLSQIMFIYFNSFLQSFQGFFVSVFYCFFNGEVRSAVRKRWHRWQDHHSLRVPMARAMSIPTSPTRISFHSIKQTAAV
T5 sequence (P24387 whole entry): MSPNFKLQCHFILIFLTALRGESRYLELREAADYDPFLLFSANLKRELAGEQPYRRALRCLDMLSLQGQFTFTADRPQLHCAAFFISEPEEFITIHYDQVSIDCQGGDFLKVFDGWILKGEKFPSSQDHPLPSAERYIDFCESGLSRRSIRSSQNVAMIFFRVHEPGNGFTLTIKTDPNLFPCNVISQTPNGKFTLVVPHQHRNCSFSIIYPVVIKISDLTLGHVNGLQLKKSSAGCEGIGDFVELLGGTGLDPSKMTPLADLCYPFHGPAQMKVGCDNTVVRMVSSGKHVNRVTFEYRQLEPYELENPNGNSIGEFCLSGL
Put plainly: Dose Response confirmation of uHTS hits for small molecule antagonists of the CRF-binding protein and CRF-R2 receptor complex. Type of test: functional. As to conditions: read-out: IC50_Mean.

Test [13] concerns the target T5, Corticotropin-releasing factor receptor 2/Corticotropin-releasing factor-binding protein. Put plainly: activators of CRF receptor 2 with binding protein – uHTS hits, confirmation (AID 602473). As to conditions: read-out: EC50_Mean. The format is functional.
Test [14] deals with Cytochrome P450 3A4 (Homo sapiens, UniProt P08684).
Test [15] addresses Trypsin (Sus scrofa, UniProt P00761). Put plainly: porcine trypsin inhibitors, dose response, selectivity assay for Rce1 protease inhibitor project, biochemical, quenched peptide fluorescence, cherry-pick (AID 488789).
Test [16] concerns the target CAAX prenyl protease 2 (Saccharomyces cerevisiae S288c, UniProt Q03530). Type of test: biochemical.
Test [17] has as its target CAAX prenyl protease 2 (Homo sapiens, UniProt Q9Y256). Put plainly: human Rce1 protease inhibitors, dose response, biochemical, yeast membranes, quenched-peptide fluorescence, cherry-pick (AID 588849).
Test [18] deals with Voltage-dependent T-type calcium channel subunit alpha-1H (Homo sapiens, UniProt O95180). As to the kind of experiment: Cav3.2 T-type channel inhibitors, cell-based, synthetic library set 1, calcium flux (AID 493022). The format is functional.
Test [19] concerns the target C-C chemokine receptor type 6 (Homo sapiens, UniProt P51684). Put plainly: CCR6 receptor antagonists, dose response, cell-based, luminescent beta-arrestin readout (AID 504728). Type of test: functional.
Test [20] addresses Beta-galactosidase (Escherichia coli, UniProt Q8VNN2). Put plainly: beta-galactosidase enzyme inhibitors and activators, dose response, artefact control for CCR6 antagonist project, biochemical, E. coli enzyme, set 3 (AID 504712). Type of test: functional.

Active and inactive are the calls of the source. A value given as a limit tells only on which side of the number the result lay.

T3 sequence (Q9UBE0 whole entry): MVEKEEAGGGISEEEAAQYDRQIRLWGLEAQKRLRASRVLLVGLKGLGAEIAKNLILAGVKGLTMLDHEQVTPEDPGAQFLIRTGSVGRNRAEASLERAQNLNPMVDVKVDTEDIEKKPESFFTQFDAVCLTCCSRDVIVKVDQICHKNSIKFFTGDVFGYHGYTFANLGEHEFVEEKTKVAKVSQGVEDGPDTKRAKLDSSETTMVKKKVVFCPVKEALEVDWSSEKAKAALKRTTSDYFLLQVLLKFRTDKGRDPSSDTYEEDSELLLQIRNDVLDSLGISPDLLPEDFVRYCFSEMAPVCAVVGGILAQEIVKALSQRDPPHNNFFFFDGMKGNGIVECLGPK
T3 sequence (Q9UBT2 whole entry): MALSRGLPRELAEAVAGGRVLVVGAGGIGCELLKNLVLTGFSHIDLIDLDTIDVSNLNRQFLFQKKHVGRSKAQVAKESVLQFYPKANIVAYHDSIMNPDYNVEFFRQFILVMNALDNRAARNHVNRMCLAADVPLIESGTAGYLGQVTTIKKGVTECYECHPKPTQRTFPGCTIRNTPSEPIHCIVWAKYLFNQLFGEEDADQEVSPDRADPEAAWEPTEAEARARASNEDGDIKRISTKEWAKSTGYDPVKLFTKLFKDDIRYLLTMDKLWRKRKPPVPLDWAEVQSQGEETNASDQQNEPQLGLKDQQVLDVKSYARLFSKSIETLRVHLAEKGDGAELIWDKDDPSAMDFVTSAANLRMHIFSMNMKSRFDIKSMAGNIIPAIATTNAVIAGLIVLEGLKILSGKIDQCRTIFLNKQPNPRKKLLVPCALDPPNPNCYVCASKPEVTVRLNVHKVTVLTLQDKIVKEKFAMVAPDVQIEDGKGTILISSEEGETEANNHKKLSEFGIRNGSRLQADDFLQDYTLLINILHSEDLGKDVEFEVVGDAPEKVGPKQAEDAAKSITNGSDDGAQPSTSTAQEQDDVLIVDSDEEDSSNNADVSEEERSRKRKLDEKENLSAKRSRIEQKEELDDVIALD
Chain of CAAX prenyl protease 2 (Saccharomyces cerevisiae S288c, UniProt Q03530) (Q03530 whole entry): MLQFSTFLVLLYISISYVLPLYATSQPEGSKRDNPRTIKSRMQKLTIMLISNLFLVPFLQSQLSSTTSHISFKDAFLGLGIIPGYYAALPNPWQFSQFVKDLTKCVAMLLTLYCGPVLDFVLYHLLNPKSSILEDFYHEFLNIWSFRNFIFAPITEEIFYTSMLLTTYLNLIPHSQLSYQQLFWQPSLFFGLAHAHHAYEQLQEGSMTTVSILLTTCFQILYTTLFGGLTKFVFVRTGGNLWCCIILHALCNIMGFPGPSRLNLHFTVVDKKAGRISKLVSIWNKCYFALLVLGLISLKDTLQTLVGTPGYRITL
Chain of Voltage-dependent T-type calcium channel subunit alpha-1H (O95180 whole entry): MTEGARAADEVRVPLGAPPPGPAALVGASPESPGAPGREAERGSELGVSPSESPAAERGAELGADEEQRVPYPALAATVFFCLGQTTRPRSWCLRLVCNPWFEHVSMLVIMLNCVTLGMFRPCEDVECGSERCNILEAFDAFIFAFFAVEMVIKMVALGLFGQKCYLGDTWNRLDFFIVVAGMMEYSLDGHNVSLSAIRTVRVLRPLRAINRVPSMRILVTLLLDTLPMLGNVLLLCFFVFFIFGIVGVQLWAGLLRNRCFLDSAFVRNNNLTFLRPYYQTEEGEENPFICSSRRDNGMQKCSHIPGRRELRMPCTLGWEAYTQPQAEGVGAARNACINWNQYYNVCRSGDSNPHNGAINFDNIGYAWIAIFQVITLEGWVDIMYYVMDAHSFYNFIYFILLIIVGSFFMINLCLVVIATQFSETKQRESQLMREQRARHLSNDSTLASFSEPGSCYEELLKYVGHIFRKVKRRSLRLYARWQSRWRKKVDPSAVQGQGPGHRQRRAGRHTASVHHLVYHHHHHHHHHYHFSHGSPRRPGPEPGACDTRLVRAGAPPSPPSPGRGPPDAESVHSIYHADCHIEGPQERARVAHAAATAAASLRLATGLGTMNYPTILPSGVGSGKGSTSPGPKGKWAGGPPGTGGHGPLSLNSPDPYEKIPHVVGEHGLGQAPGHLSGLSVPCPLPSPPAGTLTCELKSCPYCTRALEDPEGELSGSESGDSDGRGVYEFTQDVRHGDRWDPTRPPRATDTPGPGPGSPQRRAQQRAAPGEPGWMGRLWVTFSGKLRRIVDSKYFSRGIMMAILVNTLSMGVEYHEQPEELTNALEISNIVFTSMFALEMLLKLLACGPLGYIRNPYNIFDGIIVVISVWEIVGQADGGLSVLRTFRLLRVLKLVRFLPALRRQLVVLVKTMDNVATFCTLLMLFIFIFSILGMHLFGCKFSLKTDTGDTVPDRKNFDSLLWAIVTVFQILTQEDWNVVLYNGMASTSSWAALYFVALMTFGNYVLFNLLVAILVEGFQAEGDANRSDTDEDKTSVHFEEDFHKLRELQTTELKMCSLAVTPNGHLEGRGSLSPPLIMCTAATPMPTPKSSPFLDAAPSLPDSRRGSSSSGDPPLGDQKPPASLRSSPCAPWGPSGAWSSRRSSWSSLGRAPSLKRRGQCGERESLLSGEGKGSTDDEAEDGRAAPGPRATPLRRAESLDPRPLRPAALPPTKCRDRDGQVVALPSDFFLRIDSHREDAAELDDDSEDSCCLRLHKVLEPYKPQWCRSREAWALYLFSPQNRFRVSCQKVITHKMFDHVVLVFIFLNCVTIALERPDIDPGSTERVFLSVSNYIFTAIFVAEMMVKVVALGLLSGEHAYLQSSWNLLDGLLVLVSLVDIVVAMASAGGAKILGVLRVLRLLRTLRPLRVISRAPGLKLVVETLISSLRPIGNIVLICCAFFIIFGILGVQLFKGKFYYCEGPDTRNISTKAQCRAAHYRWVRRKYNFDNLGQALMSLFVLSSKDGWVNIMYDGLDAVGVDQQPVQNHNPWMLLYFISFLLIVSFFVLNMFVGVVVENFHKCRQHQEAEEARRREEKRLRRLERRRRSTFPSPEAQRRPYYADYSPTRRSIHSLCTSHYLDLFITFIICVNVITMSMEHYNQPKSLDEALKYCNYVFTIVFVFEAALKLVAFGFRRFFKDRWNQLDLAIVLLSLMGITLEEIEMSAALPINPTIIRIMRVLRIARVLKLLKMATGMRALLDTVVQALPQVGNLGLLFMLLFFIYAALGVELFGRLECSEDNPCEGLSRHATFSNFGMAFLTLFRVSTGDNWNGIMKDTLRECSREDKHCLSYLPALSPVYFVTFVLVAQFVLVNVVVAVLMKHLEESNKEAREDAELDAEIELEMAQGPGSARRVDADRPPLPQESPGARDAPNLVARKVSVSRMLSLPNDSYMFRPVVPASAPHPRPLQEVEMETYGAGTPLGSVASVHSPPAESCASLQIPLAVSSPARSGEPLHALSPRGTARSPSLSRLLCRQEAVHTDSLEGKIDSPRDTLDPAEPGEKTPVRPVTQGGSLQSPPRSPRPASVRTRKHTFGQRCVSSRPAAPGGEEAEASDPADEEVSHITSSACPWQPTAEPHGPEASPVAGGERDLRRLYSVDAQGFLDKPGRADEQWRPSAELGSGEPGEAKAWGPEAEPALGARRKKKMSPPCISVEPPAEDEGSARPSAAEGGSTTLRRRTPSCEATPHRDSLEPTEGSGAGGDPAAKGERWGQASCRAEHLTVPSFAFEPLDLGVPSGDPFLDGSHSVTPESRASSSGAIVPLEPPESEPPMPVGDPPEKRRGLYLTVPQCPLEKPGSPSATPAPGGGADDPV
Chain of Cytochrome P450 3A4 (P08684 whole entry): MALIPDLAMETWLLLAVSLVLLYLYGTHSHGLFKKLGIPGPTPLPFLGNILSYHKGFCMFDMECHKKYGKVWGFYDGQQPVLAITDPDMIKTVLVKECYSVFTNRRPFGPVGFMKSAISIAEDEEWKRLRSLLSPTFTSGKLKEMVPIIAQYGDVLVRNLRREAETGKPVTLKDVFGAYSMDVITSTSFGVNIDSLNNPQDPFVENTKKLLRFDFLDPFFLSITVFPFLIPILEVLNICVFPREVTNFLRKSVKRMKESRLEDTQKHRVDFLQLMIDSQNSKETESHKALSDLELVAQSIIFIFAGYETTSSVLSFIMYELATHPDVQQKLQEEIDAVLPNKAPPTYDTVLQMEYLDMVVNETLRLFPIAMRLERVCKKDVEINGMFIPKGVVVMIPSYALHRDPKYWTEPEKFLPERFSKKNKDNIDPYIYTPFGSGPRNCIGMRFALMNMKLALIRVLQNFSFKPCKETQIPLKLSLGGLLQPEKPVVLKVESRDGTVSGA
Chain of Caspase-7 (P55210 24-198 limits assumed): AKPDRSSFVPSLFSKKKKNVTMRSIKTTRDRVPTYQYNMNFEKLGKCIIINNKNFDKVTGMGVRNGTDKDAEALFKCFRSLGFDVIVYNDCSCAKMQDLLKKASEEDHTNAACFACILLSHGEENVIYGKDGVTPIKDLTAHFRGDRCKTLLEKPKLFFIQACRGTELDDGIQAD
Chain of Caspase-7 (P55210 207-303 limits assumed): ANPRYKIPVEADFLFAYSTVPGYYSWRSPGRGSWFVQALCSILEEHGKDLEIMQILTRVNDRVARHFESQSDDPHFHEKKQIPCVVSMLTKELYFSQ
Chain of Tyrosine-protein phosphatase non-receptor type 7 (P35236 whole entry): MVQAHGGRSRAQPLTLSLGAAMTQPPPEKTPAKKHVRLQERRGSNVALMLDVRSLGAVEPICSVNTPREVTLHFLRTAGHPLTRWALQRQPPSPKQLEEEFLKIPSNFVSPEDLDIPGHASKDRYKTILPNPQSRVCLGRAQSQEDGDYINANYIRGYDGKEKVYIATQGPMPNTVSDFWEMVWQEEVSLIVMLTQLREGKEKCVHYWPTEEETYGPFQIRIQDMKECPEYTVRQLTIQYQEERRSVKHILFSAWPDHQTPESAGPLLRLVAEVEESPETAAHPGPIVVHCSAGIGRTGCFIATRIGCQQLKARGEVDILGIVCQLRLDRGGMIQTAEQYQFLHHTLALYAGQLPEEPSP
Chain of Trypsin (P00761 whole entry): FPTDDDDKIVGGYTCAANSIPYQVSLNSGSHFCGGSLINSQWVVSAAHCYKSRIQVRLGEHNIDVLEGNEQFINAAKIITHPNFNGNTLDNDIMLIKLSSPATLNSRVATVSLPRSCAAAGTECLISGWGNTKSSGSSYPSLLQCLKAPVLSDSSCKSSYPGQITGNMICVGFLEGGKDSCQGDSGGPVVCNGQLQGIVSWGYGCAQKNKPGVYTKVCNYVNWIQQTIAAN

`Cc1cccc(Cc2c(C)nc3c(C(=O)NCc4ccco4)cnn3c2C)c1`: the EC50 in test [1] was 3.76 µM (active).
For the compound `COc1ccc(-c2csc(N(CCCN(C)C)C(=O)c3ccccc3C)n2)cc1`, in test [2], the CC50 was 63.2 µM (active). Further, the IC50 in test [3] is 76.6 µM (active).
Consider `O=C(Nc1ccccc1)c1ccc2nc(-c3ccco3)c(-c3ccco3)nc2c1`, for which the IC50 in test [4] is > 100 µM (inactive); in test [5], 1.54 µM (active); in [6], 20.7 µM (active); in [7], 2.51 µM (active). Also, the CC50 in test [8] and in test [9] was > 40 µM (active) throughout.
`COC(=O)C1=C(NC(=O)c2cccc(OC)c2)CCS1`: the EC50 in [10] is > 85.3 µM (inactive); in [11] it was > 85.3 µM (inactive); in test [13], > 53 µM (inactive). Moreover, the IC50 in test [12] was > 47.1 µM (inactive). In [14], the concentration at half-maximal activity (AC50) is 25.1 µM (inconclusive).
Consider `COc1ccc(-c2cc3ccc(OCc4nn[nH]n4)cc3oc2=O)cc1OC`, for which the AC50 was 2.34 µM (active) in test [15], 20.3 µM (active) in [16] and 1.71 µM (active) in [17].
Regarding `O=C(COc1ccc(F)cc1)Nc1nnc(-c2ccc(F)c(F)c2)o1`, in test [18], the EC50 was 3.7 µM (active).
Consider `CN(C)CC1CCC/C(=C\c2ccc(OC(=O)c3ccc(Cl)cc3)cc2)C1=O` (stereo not given), for which the IC50 is 47.6 µM (inactive) in test [19] and > 66.6 µM (inactive) in test [20].

These data come from ChEMBL document CHEMBL1201862, “PubChem BioAssay data set” (2004).
